From DBAASP
Values after ≈ are worked out from the molar mass of the structure shown. Values joined by “and” are separate entries in the source; they are usually repeats but may differ in a detail not shown here. Equal entries are not always repeated. One block for each molecule: values may come before it.

Legend:
Assay in all cases: ≥ marks a high value that may be exact or a test limit, other limits are often not marked, values filed in µg/mL are converted to µM
[1] = test system: Bacillus sp. DM-1
[2] = test system: Beauveria sp.
[3] = test system: Micrococcus luteus CGMCC 1.0290
[4] = test system: Bacillus subtilis CGMCC 1.2428
[5] = test system: Saccharomyces cerevisiae
[6] = test system: Bacillus megaterium CGMCC 1.0459
[7] = test system: Escherichia coli BL21AI
[8] = test system: Micrococcus luteus ATCC 10240
[9] = test system: Candida albicans KCTC 7965
[10] = test system: Bacillus subtilis KCTC 3068
[11] = test system: Staphylococcus aureus KCTC 1621
[12] = test system: Escherichia coli KCTC 1682
[13] = test system: Staphylococcus epidermidis KCTC 1917
[14] = test system: Salmonella typhimurium KCTC 1926
[15] = test system: Pseudomonas aeruginosa KCTC 1637
[16] = test system: Candida albicans TIMM 1768
[17] = test system: Staphylococcus epidermidis KCTC 3096
[18] = test system: Bacillus subtilis KCTC 1918
[19] = test system: Saccharomyces cerevisiae KCTC 7296
[20] = test system: Trichosporon beigelii KCTC 7707
[21] = test system: Candida albicans
[22] = test system: Escherichia coli DH5alpha
[23] = test system: Saccharomyces cerevisiae FY1679
[24] = test system: Penicillium digitatum PHI-26
[25] = test system: Bacillus subtilis NBRC 3513
[26] = test system: Bacillus megaterium ATCC 19213
[27] = test system: Staphylococcus aureus NBRC 12732
[28] = test system: Staphylococcus epidermidis NBRC 12933

MIC [1]: ≥ 33.8 µM
MIC [2]: 17.7 µM (≈ 21.9 µg/mL)
MIC [3]: 26 µM (≈ 32.2 µg/mL)
MIC [4]: 10.8 µM (≈ 13.3 µg/mL)
MIC [5]: ≥ 52 µM
MIC [6]: 8.93 µM (≈ 11.1 µg/mL)
Structure (SMILES): CC(C)[C@H](NC(=O)[C@H](CS)NC(=O)[C@H](CC(=O)O)NC(=O)CNC(=O)[C@H](CC(N)=O)NC(=O)[C@H](CCCCN)NC(=O)[C@H](CS)NC(=O)[C@H](CCCCN)NC(=O)CNC(=O)CN)C(=O)N[C@@H](CS)C(=O)N[C@@H](CCCN=C(N)N)C(N)=O [GGKCKNGDCVCR]

MIC [7]: 29.1 µM (≈ 64 µg/mL)
MIC [8]: 0.455 µM (≈ 0.999 µg/mL)
Structure (SMILES): CC[C@H](C)[C@H](NC(=O)[C@@H]1CCCN1C(=O)[C@H](CCCN=C(N)N)NC(=O)[C@@H]1CCCN1C(=O)[C@H](Cc1cnc[nH]1)NC(=O)[C@H](CO)NC(=O)[C@@H](NC(=O)[C@@H]1CCCN1C(=O)[C@H](CCCN=C(N)N)NC(=O)[C@@H]1CCCN1C(=O)[C@H](CO)NC(=O)[C@H](Cc1ccc(O)cc1)NC(=O)[C@@H]1CCCN1C(=O)[C@H](CCCN=C(N)N)NC(=O)[C@@H]1CCCN1C(=O)[C@H](CCCCN)NC(=O)CN)[C@@H](C)O)C(=O)N[C@@H](CCCN=C(N)N)C(=O)N[C@H](C(N)=O)C(C)C [GKPRPYSPRPTSHPRPIRV]

MIC [9]: 11.3 µM (≈ 25.6 µg/mL)
MIC [10]: 4 µM (≈ 9.05 µg/mL)
MIC [11]: 8 µM (≈ 18.1 µg/mL)
MIC [12]: 8 µM (≈ 18.1 µg/mL)
MIC [13]: 8 µM (≈ 18.1 µg/mL)
MIC [14]: 4 µM (≈ 9.05 µg/mL)
MIC [15]: 8 µM (≈ 18.1 µg/mL)
Structure (SMILES): CC(C)C[C@H](NC(=O)[C@H](CC(C)C)NC(=O)[C@H](CCCCN)NC(=O)[C@H](CCCCN)NC(=O)[C@H](CC(C)C)NC(=O)[C@H](CC(C)C)NC(=O)[C@H](CCCCN)NC(=O)[C@H](CC(C)C)NC(=O)[C@H](Cc1c[nH]c2ccccc12)NC(=O)[C@H](CCCCN)NC(=O)[C@H](CCCCN)NC(=O)[C@H](CC(C)C)NC(=O)[C@H](CC(C)C)NC(=O)[C@H](CCCCN)NC(=O)[C@H](CCCCN)NC(=O)[C@H](CC(C)C)NC(=O)[C@@H](N)CCCCN)C(=O)N[C@@H](CCCCN)C(N)=O [KLKKLLKKWLKLLKKLLK]

MIC [16]: 25 µM (≈ 33 µg/mL)
MIC [17]: 6.3 µM (≈ 8.32 µg/mL)
MIC [18]: 6.3 µM (≈ 8.32 µg/mL)
MIC [19]: 12.5 µM (≈ 16.5 µg/mL)
MIC [20]: 6.3 µM (≈ 8.32 µg/mL)
MIC [14]: 0.4 µM (≈ 0.528 µg/mL)
MIC [15]: 3.1 µM (≈ 4.09 µg/mL)
Structure (SMILES): CC(C)C[C@H](NC(=O)[C@H](CCCCN)NC(=O)[C@H](CCCCN)NC(=O)[C@H](CC(C)C)NC(=O)[C@H](CC(C)C)NC(=O)[C@H](CCCCN)NC(=O)[C@H](CCCCN)NC(=O)[C@H](CC(C)C)NC(=O)[C@H](CC(C)C)NC(=O)[C@@H]1CCCN1C(=O)[C@@H](N)CCCCN)C(N)=O [KPLLKKLLKKL]

MIC [21]: 132 µM (≈ 130 µg/mL)
MIC [22]: ≥ 32 µM
MIC [23]: ≥ 32 µM
MIC [24]: 4 µM and 6 µM
Structure (SMILES): CC(=O)N[C@@H](CCCN=C(N)N)C(=O)N[C@@H](CCCCN)C(=O)N[C@@H](CCCCN)C(=O)N[C@@H](Cc1c[nH]c2ccccc12)C(=O)N[C@@H](Cc1ccccc1)C(=O)N[C@@H](Cc1c[nH]c2ccccc12)C(N)=O [RKKWFW]

MIC [25]: ≥ 128 µM
MIC [26]: ≥ 64 µM
MIC [27]: ≥ 128 µM
MIC [28]: ≥ 128 µM
Structure (SMILES): CC(C)C[C@H](NC(=O)[C@H](CCCCN)NC(=O)[C@H](CC(C)C)NC(=O)[C@H](CC(C)C)NC(=O)[C@H](Cc1c[nH]c2ccccc12)NC(=O)[C@@H](N)CCCN=C(N)N)C(=O)NCC(=O)N[C@@H](Cc1cnc[nH]1)C(=O)N[C@@H](Cc1cnc[nH]1)C(=O)NCC(=O)N[C@@H](CCCN=C(N)N)C(=O)N[C@@H](C)C(=O)N1CCC[C@H]1C(=O)N1CCC[C@H]1C(=O)O [RWLLKLGHHGRAPP]
